Paper PMC7669869, “AdipoR1/AdipoR2 dual agonist recovers nonalcoholic steatohepatitis and related fibrosis via endoplasmic reticulum-mitochondria axis” (Nature Communications, 2020)
Values joined by “and” are separate entries in the source; they are usually repeats but may differ in a detail not shown here. Identical values can stand only once. Like-named read-outs stand apart in the source and are kept apart here. Non-standard residues stand in square brackets, D forms with d. Residues, ends and D or L forms follow the SMILES beside them. No end group written: not given here. Nva = CCC[C@H](N)C(=O)O

How the values were obtained:
[1] = tested on: HepG2 cells; test: PA induced lipid accumulation, Oil Red O staining; format: cell-based, human; details: HepG2, 0.25 mM PA + 200 μM peptide, 24 h; in words
Description: Hepatoma carcinoma cell line HepG2 and human hepatic activated stellate cell line LX2 used in this study were purchased from Type Culture Collection of the Chinese Academy of Sciences (Shanghai, China). Cells were cultured in Dulbecco’s modified Eagle’s medium (DMEM) with 10% fetal bovine serum (FBS), supplemented with 1% penicillin–streptomycin (ThermoFisher Scientific, USA) at 37 °C in a humidified atmosphere of 5% CO2. In PA (Sigma, USA) induced lipid accumulation cell model, HepG2 cells were seeded into a 6-well plate at 5E5 cells per well. 0.25 mM PA and/or 200 μM candidate peptides were co-incubated with cells for 24 h. Then Oil Red O staining was performed to evaluate the accumulation of lipid droplets. BSA (Sigma, USA) was used in this experiment as the negative control. For LX2 cells, 2E5 cells were seeded, then the adherent cells were exposed to 200 μM candidate peptides for another 48 h. Next, the cell protein was obtained and western blotting was performed. Candidate peptides were diluted in DMEM in a stock concentration of 1 M.

[2] = tested on: CCl4 induced liver fibrosis mice; test: CCl4 induced liver fibrosis mice: liver appearance, body weight, HE, Sirius red, IHC (αSMA, COL1α1, CD68); format: in vivo, mouse; details: CCl4 induced liver fibrosis mice; administration dosages of 0.5 mg kg−1 and 2 mg kg−1; in words
Description: Male mice liver fibrosis was induced by intraperitoneal injection of 20% CCl4 (Sigma, USA) diluted in corn oil (Aladdin, China) every 3 days for 6 weeks (n = 6; 5 ml kg^−1 body weight). Mice injected with equivalent volume of corn oil serves as control group (n = 6). Liver fibrosis mice treated with JT003 for 3 weeks were used to evaluated the pharmacological effects (n = 6; 500 μg kg^−1; daily intraperitoneal injection).
The levels of TG and HYP in liver tissue were detected with certain commercial assay kit (Nanjing Jiancheng Bioengineering Institute, China). Formalin-fixed liver tissues were embedded in paraffin, sectioned into 5 μm slices. After deparaffinization and rehydration of the section slices, they were stained with Haematoxylin and Eosin or Periodic Acid-Schiff. For the detection of liver collagen content, Sirius Red staining for collagen was performed. OCT-embedded frozen liver tissues were sectioned into 12 μm slices, and Oil Red O staining was performed. The cryostat-cut slices were stained with freshly prepared Oil Red O working solution for 7 min Two independent experimenters who were blinded to the treatment evaluated the staining slides and analyzed the score for steatosis, glucogen accumulation and collagen proliferation area.
Paraffin-embedded liver slices were deparaffinized and rehydrated, antigen retrieval was performed under the high pressure and temperature in 0.01 M sodium citrate buffer (pH = 6.0). To quench the endogenous peroxidase activity, the slices were then incubated with 1% hydrogen peroxide in methanol for 10 min in room temperature. Then slices were incubated with corresponding primary antibodies. After washing, HRP-conjugated secondary antibodies specific to the species of the primary antibodies were used. After the section were developed with DAB, hematoxylin staining was performed for cell counting.

[3] = Pharmacokinetic assay in SD rats; format: in vivo, rat
Description: Male SpragueDawley (SD) rats were randomly divided into two groups (n = 3 per group) and received a single intravenous dose of JT003 (0.5 mg/kg) or ADP355 (1.0 mg kg^−1) respectively. Blood samples were collected at 5, 15, 30, 45 min and 1, 2, 3 h following the injection, and then were immediately centrifuged (4000g, 10 min, 4 °C) to obtain plasma samples. Plasma concentrations of the two peptides were measured by LC-MS/MS (ThermoFisher Scientific, USA). Pharmacokinetic parameters of JT003 and ADP355 were calculated using non-compartmental analysis in Phoenix WinNonlin (version 8.0, Pharsight, USA). The concentration values less than the LLOQ were set to zero for the analysis.

[4] = tested on: AdipoR1 and AdipoR2 on HepG2 and LX2 cells; test: Cell confocal imaging, receptor binding of FITC labeled peptide (with AdipoR siRNA); parameters: species or system human; details: 37 °C, 2 or 4 h, AdipoR1/AdipoR2 siRNA as control, in words
Description: For in vitro receptor binding assay, 4E4 HepG2 cells or 2E4 LX2 cells were seeded on 35 mm glass bottom dish with 150 μL complete medium. Then cells were incubated with FITC labeled peptide for 4 h. The nuclei were stained with Hoechst 33342 (ThermoFisher, Scientific, USA). After washing with PBS, cells were visualized in a laser confocal microscope (Olympus FV3000, Japan). Cells with suppressed AdipoR1 and AdipoR2 expression with each specific siRNA were used as negative control.
AdipoR1 and AdipoR2 siRNA as well as mock siRNA were chemically synthesized (GenePharma, China) and transfected into 60–70% confluent HepG2 and LX2 cells using Lipofectamine 3000 (ThermoFisher Scientific, USA). Dilution of siRNA and Lipofectamine 3000 reagents as well as the transfection of cells were performed following the manufacturer’s protocol. For HepG2 cell model, 5E5 cells were plated in 6-well plates and transfected with 5 μL of 20 μM stock siRNA. At 48 h following transfection, the cells were processed for 0.25 mM PA and/or 200 μM JT003 treated for another 24 h. BSA was used as the negative control. For LX2 cell model, 2E5 cells were plated in 6-well plates and transfected with 5 μL of 20 μM stock siRNA. At 48 h following transfection, the cells were processed for JT003 or PBS treated for another 48 h. Next, cells were harvested for either western blot or qPCR assay.

[5] = Serum stability assay (RP-HPLC); format: in vitro ADME; details: for Fraction of peptide remaining, Supplementary Figure 5: mouse serum, time 0 (unit not given); for remaining at 0.5 h, 5 mM: time 0.5 (unit inferred); for remaining at 1 h, 5 mM: time 1 (unit inferred); for remaining at 1.5 h, 5 mM: time 1.5 (unit inferred); for remaining at 2 h, 5 mM: time 2 (unit inferred); for remaining at 2.5 h, 5 mM: time 2.5 (unit inferred); for remaining at 4 h, 5 mM: time 4 (unit inferred); for remaining at 6 h, 5 mM: time 6 (unit inferred)
Description: The stability of candidate peptides was investigated following procedure. […] Ice-cold acetonitrile was added to terminate the reaction. Vortex and stand for 1 min, deionized water with 1% TFA was added to the mixture to further terminate the reaction. Mixtures were then centrifuged (13,000g, 10 min) to obtain the supernatant. RP-HPLC-MS was applied to analysis the content of candidate peptides. The serum stability of candidate peptides was represented as the retention rate of each peptide.

[6] = Sprague-Dawley, rat, male SD rats, single iv dose: JT003 0.5 mg/kg, ADP355 1.0 mg/kg, plasma, LC-MS/MS, non-compartmental, Mean ± SD, n = 3-6
[7] = mouse, replicate 1, read-out: Fraction of peptide remaining, Supplementary Figure 5
[8] = mouse, replicate 2, read-out: Fraction of peptide remaining, Supplementary Figure 5
[9] = mouse, replicate 3, read-out: Fraction of peptide remaining, Supplementary Figure 5

Q: What does the source list for CCC[C@H](NC(=O)[C@@H]1CCCN1C(=O)[C@@H](NC(=O)[C@H](N)CC(N)=O)[C@@H](C)CC)C(=O)N[C@@H](CC(C)C)C(=O)N[C@@H](Cc1ccc(O)cc1)C(=O)N[C@H](CO)C(=O)N[C@@H](Cc1ccccc1)C(=O)N[C@@H](C)C(=O)N[C@H](CO)C(N)=O [ADP355] (H-[dN]IP[Nva]LY[dS]FA[dS]-NH2; N-terminus and C-terminus assumed)?
A: lipid droplets accumulation caused by PA (Oil Red O) [1]: could be reduced; inflammation, necrosis and fibrosis area (HE and sirius red staining) [2]: not notably raised; time for which plasma concentrations were measurable ([3]; SD rats, after intravenous administration, ADP355 1.0 mg/kg): 45 min; half-life ([3]; SD rats, iv, authors' response to reviewers): 6 min; AUC(0-inf) [3, 6]: 134 ± 19.9 ng·h/mL; AUC(0-t) [3, 6]: 134 ± 19.9 ng·h/mL; MRT [3, 6]: 5.4 ± 0.6 min; clearance [3, 6]: 126 mL/min/kg; Vd ([3]; Sprague-Dawley, rat, male SD rats, single iv dose: JT003 0.5 mg/kg, ADP355 1.0 mg/kg, plasma, LC-MS/MS, non-compartmental, Mean ± SD, n = 3-6, read-out: V): 1.06 ± 0.21 L/kg; t1/2 ([3]; male SD rats, single iv dose: JT003 0.5 mg/kg, ADP355 1.0 mg/kg, plasma, LC-MS/MS, non-compartmental, Mean ± SD, n = 3-6 (n = 3 per group)): 6 ± 0.6 min and 6 min

Q: Which results are given for CCC[C@H](NC(=O)[C@@H]1CCCN1)C(=O)N[C@@H](CC(C)C)C(=O)N[C@@H](Cc1ccc(O)cc1)C(=O)N[C@@H](CO)C(=O)N[C@@H](Cc1ccccc1)C(=O)N[C@@H](CC(=O)O)C(N)=O [JT006] (H-P[Nva]LYSFD-NH2)?
A: lipid droplets accumulation caused by PA (Oil Red O) [1]: little prevention of palmitic acid induced lipid droplets; binding to AdipoRs on the cell membrane (confocal, FITC) [4]: could not bind to the AdipoRs specifically

Q: With “PGLYYFD-NH2 (C-terminus assumed) [Pep70]” as the compound, how does the “Fraction of peptide remaining, Supplementary Figure 5” value (“Fraction of peptide remaining” below) ([5]; replicate 1) read?
A: Its value is 0.9901.

Q: What about the “Fraction of peptide remaining” value ([5]; replicate 2) of the same compound?
A: The value was 1.005.

Q: And the “Fraction of peptide remaining” value ([5]; replicate 3)?
A: The value was 0.9939.

Q: What about the remaining at 0.5 h, 5 mM [5, 7] of the same compound?
A: Its remaining at 0.5 h, 5 mM is 96.7%.

Q: And the remaining at 0.5 h, 5 mM [5, 8]?
A: Its remaining at 0.5 h, 5 mM is 98.6%.

Q: What about the remaining at 0.5 h, 5 mM [5, 9] of the same compound?
A: The remaining at 0.5 h, 5 mM was 94.9%.

Q: What about the remaining at 1 h, 5 mM [5, 7] of the same compound?
A: The remaining at 1 h, 5 mM was 82.5%.

Q: What about the remaining at 1 h, 5 mM [5, 8] of the same compound?
A: Its remaining at 1 h, 5 mM is 84%.

Q: What about the remaining at 1 h, 5 mM [5, 9] of the same compound?
A: Its remaining at 1 h, 5 mM is 83.1%.

Q: And the remaining at 1.5 h, 5 mM [5, 7]?
A: Its remaining at 1.5 h, 5 mM is 80.8%.

Q: What about the remaining at 1.5 h, 5 mM [5, 8] of the same compound?
A: Its remaining at 1.5 h, 5 mM is 82.6%.

Q: What about the remaining at 1.5 h, 5 mM [5, 9] of the same compound?
A: The remaining at 1.5 h, 5 mM was 83.7%.

Q: And the remaining at 2 h, 5 mM [5, 7]?
A: The remaining at 2 h, 5 mM was 50.5%.

Q: And the remaining at 2 h, 5 mM [5, 8]?
A: Its remaining at 2 h, 5 mM is 53.4%.

Q: And the remaining at 2 h, 5 mM [5, 9]?
A: Its remaining at 2 h, 5 mM is 47.2%.

Q: What about the remaining at 2.5 h, 5 mM [5, 7] of the same compound?
A: Its remaining at 2.5 h, 5 mM is 26.1%.

Q: And the remaining at 2.5 h, 5 mM [5, 8]?
A: The remaining at 2.5 h, 5 mM was 27.2%.

Q: And the remaining at 2.5 h, 5 mM [5, 9]?
A: Its remaining at 2.5 h, 5 mM is 27.2%.

Q: And the remaining at 3 h, 5 mM ([5]; mouse, time 3 (unit inferred), replicate 1, read-out: Fraction of peptide remaining, Supplementary Figure 5)?
A: Its remaining at 3 h, 5 mM is 29.9%.

Q: And the remaining at 3.5 h, 5 mM ([5]; mouse, time 3.5 (unit inferred), replicate 1, read-out: Fraction of peptide remaining, Supplementary Figure 5)?
A: The remaining at 3.5 h, 5 mM was 29.3%.

Q: And the remaining at 4 h, 5 mM [5, 7]?
A: Its remaining at 4 h, 5 mM is 23.9%.

Q: And the remaining at 4 h, 5 mM [5, 8]?
A: The remaining at 4 h, 5 mM was 24.2%.

Q: What about the remaining at 4 h, 5 mM [5, 9] of the same compound?
A: Its remaining at 4 h, 5 mM is 23.5%.

Q: What about the remaining at 6 h, 5 mM [5, 7] of the same compound?
A: Its remaining at 6 h, 5 mM is 2.28%.

Q: What about the remaining at 6 h, 5 mM [5, 8] of the same compound?
A: Its remaining at 6 h, 5 mM is 2.13%.

Q: What about the remaining at 6 h, 5 mM [5, 9] of the same compound?
A: The remaining at 6 h, 5 mM was 2.33%.
